Source: PMC6240891, “Functional Analysis of Four Terpene Synthases in Rose-Scented Pelargonium Cultivars (Pelargonium × hybridum) and Evolution of Scent in the Pelargonium Genus” (Frontiers in Plant Science, 2018)

Columns and labels:
Assay in all cases: GC-MS product analysis
Assay type in all cases: biochemical
Settings in all cases: 10 mM MgCl2, 1 mM MnCl2, pH 7.5, 30°C, 2 h
PhEDS = target: T1, PhEDS (Pelargonium graveolens, UniProt A0A2S1JKY7)
T1 construct: gene EUS; full-length; E. coli Rosetta (DE3) pLysS
T1 sequence (A0A2S1JKY7 1-567): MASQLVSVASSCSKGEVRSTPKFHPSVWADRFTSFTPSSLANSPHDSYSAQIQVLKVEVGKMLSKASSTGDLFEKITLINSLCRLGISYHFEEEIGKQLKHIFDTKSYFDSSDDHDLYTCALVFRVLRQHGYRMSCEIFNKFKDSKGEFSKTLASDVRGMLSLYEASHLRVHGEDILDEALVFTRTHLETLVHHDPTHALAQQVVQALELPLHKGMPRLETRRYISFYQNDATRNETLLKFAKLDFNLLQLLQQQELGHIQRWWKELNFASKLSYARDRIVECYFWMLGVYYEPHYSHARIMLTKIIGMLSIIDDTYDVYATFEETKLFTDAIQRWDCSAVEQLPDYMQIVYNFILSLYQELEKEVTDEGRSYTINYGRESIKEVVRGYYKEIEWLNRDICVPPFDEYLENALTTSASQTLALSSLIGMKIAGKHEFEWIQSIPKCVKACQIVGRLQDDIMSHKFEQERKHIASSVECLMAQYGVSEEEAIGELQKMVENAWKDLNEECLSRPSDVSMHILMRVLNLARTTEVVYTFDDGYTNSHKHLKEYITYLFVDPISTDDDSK

PhMYRS = target: T2, PhMYRS (Pelargonium graveolens, UniProt A0A2S1JKZ8)
T2 construct: gene MYRS; full-length (predicted plastid-targeted); E. coli Rosetta (DE3) pLysS
T2 sequence (A0A2S1JKZ8 1-606): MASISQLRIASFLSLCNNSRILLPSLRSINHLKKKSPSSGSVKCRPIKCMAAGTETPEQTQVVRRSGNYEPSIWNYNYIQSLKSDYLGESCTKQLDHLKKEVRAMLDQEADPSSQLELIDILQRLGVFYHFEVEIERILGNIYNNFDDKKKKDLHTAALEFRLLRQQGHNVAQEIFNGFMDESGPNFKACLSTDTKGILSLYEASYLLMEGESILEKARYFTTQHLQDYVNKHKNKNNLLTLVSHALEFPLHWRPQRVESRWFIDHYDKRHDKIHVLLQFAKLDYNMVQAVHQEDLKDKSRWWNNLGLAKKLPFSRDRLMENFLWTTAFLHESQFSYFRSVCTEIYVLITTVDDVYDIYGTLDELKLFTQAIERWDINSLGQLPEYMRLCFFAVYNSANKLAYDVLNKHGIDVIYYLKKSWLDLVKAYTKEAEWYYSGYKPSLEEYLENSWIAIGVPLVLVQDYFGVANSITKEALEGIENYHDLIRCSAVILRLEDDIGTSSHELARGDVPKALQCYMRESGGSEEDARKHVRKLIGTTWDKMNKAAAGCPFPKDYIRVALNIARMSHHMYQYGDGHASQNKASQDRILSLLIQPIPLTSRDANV

PhGES = target: T3, PhGES (Pelargonium graveolens, UniProt A0A2S1JKY6)
T3 construct: gene GES; full-length (plastid-targeted); E. coli Rosetta (DE3) pLysS; 'Grasse' form lacks the TAL triplet of 'Bourbon' and 'Egypt'
T3 sequence (A0A2S1JKY6 1-555): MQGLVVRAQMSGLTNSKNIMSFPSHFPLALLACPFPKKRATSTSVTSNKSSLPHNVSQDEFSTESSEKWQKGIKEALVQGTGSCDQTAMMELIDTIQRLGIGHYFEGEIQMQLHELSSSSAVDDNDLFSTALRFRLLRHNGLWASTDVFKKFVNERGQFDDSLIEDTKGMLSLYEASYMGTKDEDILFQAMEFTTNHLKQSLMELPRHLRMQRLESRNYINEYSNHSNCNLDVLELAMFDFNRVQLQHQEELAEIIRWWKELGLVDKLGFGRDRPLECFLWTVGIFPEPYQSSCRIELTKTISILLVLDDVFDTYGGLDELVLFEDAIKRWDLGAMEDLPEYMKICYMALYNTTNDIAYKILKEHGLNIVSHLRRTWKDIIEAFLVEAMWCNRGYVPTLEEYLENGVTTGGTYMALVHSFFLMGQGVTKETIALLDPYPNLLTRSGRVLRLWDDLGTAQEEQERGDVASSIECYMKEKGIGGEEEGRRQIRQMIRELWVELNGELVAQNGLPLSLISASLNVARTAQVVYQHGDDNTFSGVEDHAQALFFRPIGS

CC1=C2CC(C(C)(C)O)CCC2(C)CCC1 (stereo not drawn) [10-epi-γ-eudesmol]
GC-MS product analysis (PhEDS; major product from FPP): PhEDS (MF503882) produced 10-epi-γ-eudesmol and α-eudesmol as major and minor products

CC(C)=CCC/C(C)=C/CC/C(C)=C/COP(=O)(O)OP(=O)(O)O [FPP]
GC-MS product analysis (PhEDS; 50 µM): PhEDS (MF503882) produced 10-epi-γ-eudesmol and α-eudesmol as major and minor products, respectively, after incubation with FPP

CC(C)=CCC/C(C)=C/COP(=O)(O)OP(=O)(O)O [GPP]
GC-MS product analysis (PhMYRS; 50 µM): PhMYRS (MF503884) used GPP to produce β-myrcene as major compound | GC-MS product analysis (PhGES; 50 µM): PhGES (MF503883) produced uniquely geraniol in presence of GPP as a substrate

CC(C)=CCC/C(C)=C/CO [geraniol]
GC-MS product analysis (PhGES; sole product from GPP): PhGES (MF503883) produced uniquely geraniol in presence of GPP as a substrate

C=CC(=C)CCC=C(C)C [β-myrcene]
GC-MS product analysis (PhMYRS; major product from GPP): PhMYRS (MF503884) used GPP to produce β-myrcene as major compound
